Experimental data published in the NIST ThermoML archive (doi:10.1016/j.jct.2013.05.019).

Assay: xn = mol fraction of the nth substance listed
Conditions: 101 kPa, Liquid; for viscosity: Falling or rolling sphere viscometry; for mass density: Vibrating tube method; for electrical conductivity: Alternating current cell with electrodes

CCCC[NH3+].O=[N+]([O-])[O-] [n-butylammonium nitrate] + O
Conditions | electrical conductivity [S/m] | mass density [kg/m3] | viscosity [mPa·s]
293.15 K, x1 = 0.1 | – | 1059.97 | 2.468
293.15 K, x1 = 0.2001 | – | 1081.27 | 4.454
293.15 K, x1 = 0.3009 | – | 1090.62 | 7.217
293.15 K, x1 = 0.4004 | – | 1095.83 | 11.69
293.15 K, x1 = 0.5011 | – | 1099.15 | 17.61
293.15 K, x1 = 0.6505 | – | 1102.02 | 31.21
293.15 K, x1 = 0.7869 | – | 1103.62 | 51.54
293.15 K, x1 = 0.9022 | – | 1104.42 | 78.32
293.15 K, x1 = 1 | – | 1104.68 | 111.35
298.15 K, x1 = 0.001 | 0.583 | – | –
298.15 K, x1 = 0.002 | 0.997 | – | –
298.15 K, x1 = 0.004 | 1.55 | – | –
298.15 K, x1 = 0.005 | 1.73 | – | –
298.15 K, x1 = 0.006 | 1.89 | – | –
298.15 K, x1 = 0.0081 | 2.18 | – | –
298.15 K, x1 = 0.02 | 2.95 | – | –
298.15 K, x1 = 0.03 | 3.19 | – | –
298.15 K, x1 = 0.05 | 3.4 | – | –
298.15 K, x1 = 0.0609 | 3.46 | – | –
298.15 K, x1 = 0.1 | 3.42 | 1056.89 | 2.221
298.15 K, x1 = 0.1999 | 3.31 | – | –
298.15 K, x1 = 0.2001 | – | 1078.05 | 3.908
298.15 K, x1 = 0.2997 | 2.95 | – | –
298.15 K, x1 = 0.3009 | – | 1087.35 | 6.297
298.15 K, x1 = 0.3999 | 2.52 | – | –
298.15 K, x1 = 0.4004 | – | 1092.56 | 10.08
298.15 K, x1 = 0.4998 | 2.08 | – | –
298.15 K, x1 = 0.5011 | – | 1095.89 | 15.1
298.15 K, x1 = 0.5986 | 1.77 | – | –
298.15 K, x1 = 0.6505 | – | 1098.8 | 26.25
298.15 K, x1 = 0.6979 | 1.45 | – | –
298.15 K, x1 = 0.7869 | – | 1100.42 | 42.46
298.15 K, x1 = 0.799 | 1.23 | – | –
298.15 K, x1 = 0.9001 | 1.01 | – | –
298.15 K, x1 = 0.9022 | – | 1101.25 | 65.05
298.15 K, x1 = 1 | 0.867 | 1101.52 | 89.95
303.15 K, x1 = 0.1 | – | 1053.73 | 1.963
303.15 K, x1 = 0.2001 | – | 1074.8 | 3.459
303.15 K, x1 = 0.3009 | – | 1084.06 | 5.545
303.15 K, x1 = 0.4004 | – | 1089.29 | 8.783
303.15 K, x1 = 0.5011 | – | 1092.64 | 13.08
303.15 K, x1 = 0.6505 | – | 1095.58 | 22.35
303.15 K, x1 = 0.7869 | – | 1097.24 | 35.45
303.15 K, x1 = 0.9022 | – | 1098.1 | 53.53
303.15 K, x1 = 1 | – | 1098.38 | 73.04
308.15 K, x1 = 0.1 | – | 1050.52 | 1.754
308.15 K, x1 = 0.2001 | – | 1071.53 | 3.088
308.15 K, x1 = 0.3009 | – | 1080.78 | 4.924
308.15 K, x1 = 0.4004 | – | 1086.02 | 7.715
308.15 K, x1 = 0.5011 | – | 1089.4 | 11.42
308.15 K, x1 = 0.6505 | – | 1092.38 | 19.25
308.15 K, x1 = 0.7869 | – | 1094.08 | 29.98
308.15 K, x1 = 0.9022 | – | 1094.97 | 44.59
308.15 K, x1 = 1 | – | 1095.26 | 60.25
313.15 K, x1 = 0.1 | – | 1047.4 | 1.579
313.15 K, x1 = 0.2001 | – | 1068.24 | 2.774
313.15 K, x1 = 0.3009 | – | 1077.49 | 4.401
313.15 K, x1 = 0.4004 | – | 1082.76 | 6.823
313.15 K, x1 = 0.5011 | – | 1086.16 | 10.04
313.15 K, x1 = 0.6505 | – | 1089.2 | 16.75
313.15 K, x1 = 0.7869 | – | 1090.94 | 25.8
313.15 K, x1 = 0.9022 | – | 1091.86 | 37.54
313.15 K, x1 = 1 | – | 1092.17 | 50.12
